Here are results for 4 compounds from patent US20250281502A1, “NEW DRUG APPLICATION” (Centre National de la Recherche Scientifique, priority 2021, published 2025).

The term IC50 denotes the concentration that gives 50% inhibition.

The test system of data set [1] is Human Myeloma Cell Lines (HMCLs). In words: CellTiter-Glo cell viability, IC50 in human myeloma cell lines. Type of data set: cell-based. Here is the method: JJN3, OPM2, RPM18266, LP1, AMO1, SKMM2 human myeloma cell lines (HMCLs) were obtained from ATCC (Molshein, France) and were cultured in RPMI 1640 medium, supplemented with 10% fetal calf serum (Biochrom, Berlin, Germany) and 2 mM L-Glutamine. The interleukin-6-dependent cell lines XG1, XG2, XG6, XG7, XG12, XG19, XG20, XG21 were obtained as previously described and maintained in the presence of 2 ng/mL recombinant IL-6 (R&D Systems, Oxon, UK), 10% fetal calf serum and 2 mM L-Glutamine.
Cells in culture were stained using trypan blue solution (Sigma-Aldrich, St. Louis MO, USA) and viable cells were counted under a light microscope. The CellTiter-Glo Luminescent Viability assay (Promega, Leiden, The Netherlands) was used to measure the effect on cell viability according to manufacturer's instructions, and the 50% inhibition (IC50) was determined using GraphPad Prism software (http://www.graphpad.com/scientific-software/prism/).

In data set [2] the test system is XG2 cell line. In words: Melphalan IC50 with or without Pyridostatin, XG2 cell line. As to conditions: Homo sapiens. The format is cell-based.
The test system of data set [3] is XG7-RH. In words: Western blot of DNA damage response in XG7 with inducible RNase H. The format is cell-based, human. As to conditions: XG7-RH with doxycycline, 5 h or 24 h (FIG. 7). Here is the method: FIGS. 7A and 7B represent Western blots. Doxy stands for doxycycline. PDS stands for Pyridostatin (concentration in μM). XG7 cell line was transduced with a doxycycline-inducible lentivirus containing RNase H gene (XG7-RH). XG7-RH was cultured with or without doxycycline in absence or presence of Pyridostatin during 5 h or 24 h. Western blot membranes were stained with anti-Phospho-Chk2, anti-Phospho-P53, anti-P53, anti-PARP, anti-myc (FIG. 7A) and anti-p21, anti-p16, anti-p27 and anti-gH2AX (FIG. 7B). Tubulin protein level was used as control.
Western Blot Analysis Western blot analysis was performed as previously described (Viziteu, E. et al., Leukemia 31, 2104-2113, 2017). Tubulin was used as loading control. All antibodies used were purchased from Cell Signaling, except for p21, p27, Myc, and phospho-Histone H2A.X. Myc antibody was obtained from Santa Cruz biotechnology (Texas, USA), phospho-Histone H2A.X antibody from Merck Millipore (Sigma-Aldrich), and p27 antibody was from Sigma-Aldrich.
In general terms: Immunoblotting shows a protein as a band on a membrane.

Data set [4] relates to normal cells from the bone marrow microenvironment. In words: Primary patient samples, co-cultured normal bone marrow cells by flow cytometry. Type of data set: cell-based, human. As to conditions: five MM patients (FIG. 6C). Here is the method: FIG. 6A represents the IC50 of Pyridostatin (nM) for […]: a is OPM2; b is XG12; c is XG21; d is XG19; e is RPM18266; f is LP1; g is XG6; h is JJN3; I is XG2; j is XG7; k: L363; I is XG1; m is AMO1; n is SKMM2 and o is XG20. IC50 of Pyridostatin +/−SD are representative of 3 independent experiments. NA: not reached. FIG. 6B represents the Pyridostatin toxicity on bone marrow cells (x-axis is the Pyridostatin concentration in μM; y-axis is the cell count in percentage of the control (0 μM of Pyridostatin)). The toxicity of Pyridostatin was assessed on primary bone marrow cells from one MM patient (dark grey bars), co-cultured with normal bone marrow microenvironment (light grey). The toxicity on MM cells and normal bone marrow cells was assessed by flow cytometry using CD138 and CD28 marker cells. FIG. 6C represents the Pyridostatin toxicity on bone marrow cells (x-axis is the Pyridostatin concentration in μM; y-axis is the cell count in percentage of the control (0 μM of Pyridostatin)). The toxicity of Pyridostatin was assessed on primary bone marrow cells from five MM patient (black bars) and co-cultured with normal bone marrow microenvironment (grey bars). The toxicity on MM cells and normal bone marrow cells was assessed by flow cytometry using CD138 and CD28 marker cells. Data are mean values of five independent experiments. […]
Background: In flow cytometry, cells or beads pass a laser one at a time.

The test system of data set [5] is XG2-MeIR cell line. In words: Melphalan response with or without Pyridostatin, Melphalan-resistant XG2 cell line. The format is cell-based, human. The settings on record: 4 days (FIGS. 14 and 15).
Data set [6] concerns primary MM cells from patients. In words: Primary patient samples, viable CD138+ MM cells by flow cytometry. The format is cell-based, human. As to conditions: co-cultured with bone marrow microenvironment (FIG. 6B, 6C).
Data set [7] has as its system MM cell. In words: MM cell growth, apoptosis and cell cycle after Pyridostatin. Type of data set: cell-based, human.

Where only a bound is given, the exact number is not on record here.

Take `CCNC(=O)C[C@@H]1N=C(c2ccc(Cl)cc2)c2cc(OC)ccc2-n2c(C)nnc21` [I-BET-762, (4S)-6-(4-Chlorophenyl)-N-ethyl-8-methoxy-1-methyl-4H-[1,2,4]triazolo[4,3-a][1,4]benzodiazepine-4-acetamide]: in data set [1], the “sensitivity of HMCLs with high TRC score compared to low TRC score” value is “significantly more sensitive”.

As to `N[C@@H](Cc1ccc(N(CCCl)CCCl)cc1)C(=O)O` [Melphalan], the 50% inhibitory concentration (IC50) in data set [2] (96 h, black bars, Melphalan and Pyridostatin at 1.25 μM for 4 days, first value printed for XG2 (FIG. 15)) was determined as 1490 nM; in data set [2] (96 h, black bars, Melphalan and Pyridostatin at 1.25 μM for 4 days, second value printed for XG2 (FIG. 15)) it was 632 nM; in data set [2] (grey bars, Melphalan alone, first value printed for XG2 (FIG. 15)), 632 nM; in data set [2] (grey bars, Melphalan alone, second value printed for XG2 (FIG. 15)), 350 nM.

As to `NCCOc1cc(C(=O)Nc2cc(OCCN)c3ccccc3n2)nc(C(=O)Nc2cc(OCCN)c3ccccc3n2)c1` [Pyridostatin], the “DNA damage response after PDS treatment on inducible RNase H expression (phosphorylation of Chk2, p53; p21 and p16 expression)” value in data set [3] is “significant reduction of DNA damage response”. Further, in data set [4], the “toxicity on co-cultured normal cells” value is “without any significant toxicity”. In addition, the “re-sensitization of resistant cells to Melphalan” value in data set [5] is “re-sensitize the resistant cells (XG2-MeIR) to Melphalan”. For the same compound, the “toxicity on primary MM cells” value in data set [6] is given as “toxicity”. In addition, in data set [1] (5 cell lines (FIG. 6A)), the “resistance to PDS” value is on record as “higher resistance”. In data set [1] (Homo sapiens, 10 HMCLs (FIG. 6A), read-out: IC50 of Pyridostatin), the IC50 is ≤ 2000 nM. In addition, in data set [7], the MM cell growth result is “inhibits MM cell growth”, the apoptosis entry is recorded as “induces apoptosis” and the cell cycle result is “significant accumulation in G2/M phase”.

Regarding `COc1cc(OC)c2c(=O)[nH]c(-c3cc(C)c(OCCO)c(C)c3)nc2c1` [RVX-208, 2-[4-(2-hydroxyethoxy)-3,5-dimethylphenyl]-5,7-dimethoxy-4(3H)-quinazolinone], the “sensitivity of HMCLs with high TRC score compared to low TRC score” value in data set [1] is “significantly more sensitive”.
